Measurements as given in patent US20230165973A1, “COMPOSITIONS AND METHODS FOR DELIVERING MESSENGER RNA” (ARBUTUS BIOPHARMA CORPORATION, priority 2013, published 2023).
“And” between values parts separate entries of the source, which are not always exact repeats. Equal entries are not always repeated.

Key:
naïve Balb/C mice = experiment: Luciferase liver model, aminolipid potency comparison (Example 2); type: in vivo, mouse; conditions: intravenously, 0.5 mg/kg total mRNA, six hours following injection
Description: (§1) The experiments described in this Example 2 used a firefly luciferase mRNA (“mLuc”), fully modified with pseudouridine and 5-methylcytidine replacing uridine and cytidine respectively. The LNP formulation used in these studies have the following general lipid composition (molar ratios): PEG-lipid (PEG2000-C-DMA (1.6 mol %); appropriate aminolipid (54.6 mol %); cholesterol (32.8 mol %); and DSPC (10.9 mol %). A lipid stock was prepared with the appropriate lipids dissolved in ethanol (12.6 mM). The mLuc stock was made up in a 40 mM EDTA buffer at 0.366 mg/mL in 40 mM EDTA. The two stocks were combined using the Jeffs et al method (Pharm. Research (2005), 22(3), pages 362-372), blending in a t-connector and diluted into Phosphate Buffered Saline, pH 7.4. Buffer exchange was then performed via overnight bag dialysis against 10× volume of PBS. After dialysis, LNP were concentrated by centrifugation in Vivaspin-6 or Vivaspin-20 units (MWCO 100 k) from GE Healthcare. The LNP were then sterile filtered (0.2 μm filter). Concentration of the LNP was determined using RiboGreen and a Varian Cary Eclipse Fluorimeter. Particle size and polydispersity were determined using a Malvern Nano Series Zetasizer.
LNP containing a luciferase mRNA payload were dosed at 0.5 mg/kg in naïve Balb/C mice (n=3). Six hours following injection, the mice were euthanized and livers were removed, weighed, and placed in lysing matrix tubes (containing one ceramic bead) on ice. PBS treatment groups were included to determine the background level of quenching of luciferase activity caused by the tissue homogenate in the Luciferase assay. Following collection, the tissues from these PBS treated animals were spiked with 50 μL of 100 ng/mL Luciferase solution in 1×CCLR (Cell Culture Lysis Reagent). Tissues were stored at −80° C. until Luciferase assay was performed.
(§2) All sample processing procedures were performed on ice. Tissues were homogenized and centrifuged in an Eppendorf microfuge at 3000 rpm & 4° C. for 10 minutes. After centrifugation, 20 μL of homogenate was aliquoted in duplicate into a white 96-well luminometer plate. Firefly luciferase […] was then analyzed on the EG&G Berthold Microplate Luminometer LB using the Promega Luciferase Assay System. The luciferase activity within the wells was determined by comparing the resulting RLUs for the homogenates to a standard curve prepared from 20 μL of firefly luciferase. A quenching factor was assigned to each tissue to control for natural quenching from the homogenates. This was determined using luciferase-spiked tissue from PBS treated mice.
The various formulations described were also assessed for potency in the mouse liver model. As an additional control, the use of the commercially available delivery reagent TransIT (Mirus) has been described in the literature for delivery of mRNA. A 0.05 mg/mL solution of TransIT-mRNA complex was prepared as follows. 50 μL of 1 mg/mL mRNA was added to 860 μL of DMEM, and to this solution the reagents from the TransIT-mRNA kit (Mirus) were added. In sequential order, 35 μL of the mRNA Boost reagent was added followed by 55 μL of the TransIT-mRNA reagent. The final solution was then incubated for 2-5 minutes before intravenous or intraperitoneal dosing.
All formulations were administered intravenously at a dose of 0.5 mg/kg total mRNA.

[1] = Formulability: LNP particle size, polydispersity and mRNA encapsulation (Example 2); type: physicochemical; conditions: mLuc LNP with the aminolipid at 54.6 mol %; 12.6 mM lipid stock
Description: as §1
The effect of the choice of aminolipid on parameters such as formulability and potency in the mRNA formulations was examined. As benchmarks, we selected the dilinoleyl lipids 5, 6, 7, and 8. […] We also selected a range of lipids with hydrophobic domains consisting of multiple (3 or 4) alkyl chains; 10, 9, 11, 13, 14, 17, and 18. Formulations were prepared as described above, using a 12.6 mM lipid stock.

[2] = Reproducibility of lipid particle formulation; type: physicochemical; conditions: multiple mLuc LNP formulations; lipid stock 8.3-19.0 mM total lipid
Description: Two aminolipids were selected to examine the reproducibility of lipid particle formulation. The benchmark dilinoleyl aminolipid MC3 was compared to the short trialkyl lipid 13-B43.
Multiple formulations were made, using the following composition (expressed as molar percentages): PEG-lipid (PEG2000-C-DMA) (1.6 mol %); amino lipid (54.6 mol %); cholesterol (32.8 mol %); and DSPC (10.9 mol %), according to the general procedures described above. The lipid stock was prepared in ethanol (ranging from 8.3-19.0 mM total lipid). The mRNA stock was prepared at 0.366 mg/mL in 40 mM EDTA. Buffer exchange was then performed via overnight bag dialysis against 10× volume of PBS. Samples were then concentrated to […] mRNA by centrifugation in Vivaspin-20 units (MWCO 100 k) from GE Healthcare. The LNP were then sterile filtered. Concentration of the LNP was determined using RiboGreen and a Varian Cary Eclipse Fluorimeter. Particle size and polydispersity were determined using a Malvern Nano Series Zetasizer.

Balb/C mice = experiment: Luciferase assay of Example 1 with tetraalkyl lipids, liver (Example 8); type: in vivo, mouse; conditions: particles comprising the lipid, assay described in Example 1
Description: In the liver model, LNP were dosed at 0.5 mg/kg in the naïve Balb/C mice (n=5). Six hours following injection, the mice were euthanized and the livers were removed, weighed, and placed in lysing matrix tubes (containing one ceramic bead) on ice.
as §2, with “rpm at” for “rpm &”, “resulting Relative Light Units (RLUs)” for “resulting RLUs”
In particular, the tetraalkyl lipids mediated an enhanced level of delivery of luciferase mRNA to living cells than the established benchmark dialkyl lipid 8 shown in Table 8.

Row | Compound | % Encaps (Percentage Encapsulation) [1] [%] | PDI (polydispersity index) [1] | Zavg (average lipid particle diameter) [1] [nm] | Particle size [2] | Polydispersity Index [2] | Luciferase protein in ng per g of liver (naïve Balb/C mice) | % Encaps of mLuc [2] | Activity in luciferase assay (Balb/C mice)
1 | CCCCC/C=C\C/C=C\CCCCCCCCC(OC(=O)CCCCN(C)CC)C(O)(CCCCCCCC/C=C\C/C=C\CCCCC)CCCCCCCC/C=C\C/C=C\CCCCC (stereo not drawn) [Compound 10, (6Z,9Z,29Z,32Z)-20-hydroxy-20-((9Z,12Z)-octadeca-9,12-dienyl)octatriaconta-6,9,29,32-tetraen-19-yl 5-(ethyl(methyl)amino)pentanoate] | – | – | – | – | – | 203.47 ng per g of liver | – | –
2 | CCCCCCCCC(CCCCCC)CC(CC(CCCCCC)CCCCCCCC)OC(=O)CCCCN(C)C (stereo not drawn) [Compound 35, 9,13-dihexylhenicosan-11-yl 5-(dimethylamino)pentanoate] | – | – | – | – | – | – | – | 1,412,464 pg/g liver tissue
3 | CCCCCCCCC(CCCCCC)CC(CC(CCCCCC)CCCCCCCC)OC(=O)CCCCCN(C)C (stereo not drawn) [Compound 37, 9,13-dihexylhenicosan-11-yl 6-(dimethylamino)hexanoate] | – | – | – | – | – | – | – | 2,228,526 pg/g liver tissue
4 | CCCCC/C=C\CCCC(CCC/C=C\CCCCC)C(CC(CCCC)CCCCCC)OC(=O)CCCCN(C)C (stereo not drawn) [Compound 43, (Z)-7-butyl-10-((Z)-dec-4-en-1-yl)icos-14-en-9-yl 5-(dimethylamino)pentanoate] | – | – | – | – | – | – | – | 919,590 pg/g liver tissue

Second part, led by results:

Row | % Encaps (Percentage Encapsulation) [1] [%] | PDI (polydispersity index) [1] | Zavg (average lipid particle diameter) [1] [nm] | Particle size [2] | Polydispersity Index [2] | Compound | Luciferase protein in ng per g of liver (naïve Balb/C mice) | % Encaps of mLuc [2] | Activity in luciferase assay (Balb/C mice)
5 | 50 | 0.11 | 158 | 134 nm and 151 nm and 158 nm and 119 nm | 0.11 and 0.07 and 0.08 and 0.14 and 0.12 | CCCCC/C=C\C/C=C\CCCCCCCCC(CCCCCCCC/C=C\C/C=C\CCCCC)OC(=O)CCCN(C)C [Compound 7, (6Z,9Z,28Z,31Z)-heptatriaconta-6,9,28,31-tetraen-19-yl 4-(dimethylamino)butanoate] | 369.85 ng per g of liver | 56% and 63% and 49% and 50% and 69% and 52% | –
6 | 57 | 0.13 | 144 | – | – | CCCCC/C=C\C/C=C\CCCCCCCCC(CCCCCCCC/C=C\C/C=C\CCCCC)OCCCN(C)C [Compound 8] | 264.90 ng per g of liver | – | 774,159 pg/g liver tissue
7 | 62 | 0.06 | 95 | – | – | CCCCC/C=C\CCCC(CCC/C=C\CCCCC)C(CCC/C=C\CCCCC)OC(=O)CCCN(C)C (stereo not drawn) [Compound 9] | 968.83 ng per g of liver | – | –
8 | 88 | 0.08 | 117 | – | – | CCC/C=C\CCC(CC/C=C\CCC)CC(OC(=O)CCCCN(C)C)C(CC/C=C\CCC)CC/C=C\CCC (stereo not drawn) [Compound 18] | 1388.39 ng per g of liver | – | –
9 | 78 | 0.10 | 138 | – | – | CCCCC/C=C\CCCC(CCC/C=C\CCCCC)C(CC/C=C\CCCCC)OC(=O)CCCCN(C)C (stereo not drawn) [Compound 19] | – | – | –
